Test results published in patent US20240009150A1, “CAPSAICYNS IN THE TREATMENT OF LEAKY GUT” (AXICHEM AB [SE]/[SE], priority 2020, published 2024).
Entries after “also recorded” stand apart in the source; their conditions may differ. Like-named read-outs stand apart in the source and are kept apart here. Marks after values point to notes of the source that are not given here.

Tests used:
[1] = tested on: P. aeruginosa (ATCC® 15442); experiment: Inhibition of biofilm formation, crystal violet staining assay; type: cell-based, Pseudomonas aeruginosa; conditions: for Biofilm (OD 595 nm): 24 hr; for Biofilm (OD 595 nm) / biofilm formed (CVSA), in words: 30° C.; for inhibition of biofilm formation, conclusion in words: any dose tested; for biofilm formed (CVSA), in words: concentrations less than 125 ug/ml
Description: A stock solution of 1000 ug of V and capsaicin was prepared by dissolving 1000 μg in 100 μl of ethanol and 900 μl of sterile water. The stock solutions were sequentially diluted with […] of solvent (10% aqueous ethanol solution) to yield 500/125//31.25/7.81 μg/ml test solutions.
P. aeruginosa (ATCC® 15442) was used to determine the biofilm inhibition activity. Inducer N-hexanoyl homoserine lactone (C6-HSL) was purchased from Sigma-Aldrich. ATCC® 15442 was cultivated in Luria-Bertani (LB) medium (LB, 5 g yeast extract, 10 g tryptone, 5 g NaCl, 1 L water) at 30° C. overnight under aerobic conditions.
(§1) Biofilm formation was quantified with modifications using the method described by Stepanovic et al. (Journal of Microbiological Methods, 2000, 40(2), 175-19) with modifications. Using a 96-well microplate duplicate the test solutions were filled at the above selected doses. Cultures were grown for 18 hr in LB at 30° C. and adjusted to OD 0.1 at 600 nm. 20 μL of the culture were added into each well and the remainder of the volume to 200 μL per well was filled with LB. Unused external wells were filled with 200 μL of sterile water to prevent evaporation.
(§2) After 24 hr of incubation, supernatants were discarded, and the wells were washed three times with 200 μL of sterile phosphate buffered saline (PBS). Bacteria adhered to the wells were fixed with 200 μL of methanol for 15 min, the methanol was discarded, and the plates dried at 25° C.
(§3) Each well was stained with 200 μL of 0.3% (w/v) crystal violet solution for 5 min at 25° C. Crystal violet excess was pipetted out, and the wells were rinsed five times with sterile PBS. 200 μL of 33% (v/v) glacial acetic acid were added to the wells for 30 min to solubilise the dye adhered to the cell walls. Optical density (OD) was measured at 595 nm using a microplate spectrophotometer as a direct measure of biofilm formation. P. aeruginosa in 3% DMSO will be used as the negative control.

Escherichia coli O157:H7 = experiment: as above; type: cell-based; conditions: for Biofilm (OD 595 nm): 24 hr; for Biofilm (OD 595 nm) / biofilm formed (CVSA), in words: 30° C.
Description: as §1, §2, §3
A stock solution of 1000 μg of phenylcapsaicin and capsaicin was prepared by dissolving 1000 μg in 100 μL of ethanol and 900 μL of sterile water. The stock solutions were sequentially diluted with double and then quadruple volumes of solvent (10% aqueous ethanol solution) to yield 500/125/31.25 (32)/7.81 (8) μg/ml test solutions.
E. coli O157:H7 was used to determine the biofilm inhibition activity. Inducer N-hexanoyl homoserine lactone (C6-HSL) was purchased from Sigma-Aldrich. E. coli O157:H7 was cultivated in Luria-Bertani (LB) medium (LB, 5 g yeast extract, 10 g tryptone, 5 g NaCl, 1 L water) at 37° C. overnight under aerobic conditions.
Crystal violet staining assay was performed as in Experiment 3, using E. coli O157:H7 in 3% DMSO as the control.

[2] = tested on: Salmonella enterica subsp. enterica serovar Paratyphi C (ATCC® BAA 1714™); experiment: Inhibition of biofilm formation, crystal violet staining assay (Example 5); type: cell-based; conditions: for Biofilm (OD 595 nm): 24 hr; for Biofilm (OD 595 nm) / biofilm formed (CVSA), in words: 30° C.; for biofilm formed (CVSA), in words: 32 and 8 μg/ml
Description: as §1, §2, §3
A stock solution of 1000 μg of phenylcapsaicin and capsaicin was prepared by dissolving 1000 μg in 100 μl of ethanol and 900 μl of sterile water. The stock solutions were sequentially diluted with double and then quadruple volumes of solvent (10% aqueous ethanol solution) to yield 500/125/31.25 (32)/7.81 (8) μg/ml test solutions.
ATCC® BAA 1714™ was used to determine the biofilm inhibition activity. Inducer N-hexanoyl homoserine lactone (C6-HSL) was purchased from Sigma-Aldrich. ATCC® BAA 1714™ was cultivated in Luria-Bertani (LB) medium (LB, 5 g yeast extract, 10 g tryptone, 5 g NaCl, 1 L water) at 37° C. overnight under aerobic conditions.
Crystal violet staining assay was performed as in Experiment 3, using ATCC® BAA 1714™ in 3% DMSO as the control.

[3] = tested on: Chromobacterium violaceum CV026; experiment: Quorum sensing inhibition, disc-diffusion assay with Chromobacterium violaceum CV026 (QS and antibacterial zones); type: cell-based; conditions: for QS (zone of quorum sensing inhibition): disc diffusion, zone past the disk; for zone of inhibition at 7.81 µg/mL / zone of inhibition at 15.63 µg/mL / zone of inhibition at 31.13 µg/mL / zone of inhibition at 62.5 µg/mL / zone of inhibition at 125 µg/mL / zone of inhibition at 250 µg/mL / zone of inhibition at 500 µg/mL: Chromobacterium violaceum
Description: Chromobacterium violaceum CV026 is a violacein negative, double mini-Tn5 mutant from C. violaceum (ATCC 31532) that was used to identify quorum sensing inhibition.
A stock solution of 1000 ug of compound V and capsaicin was prepared by dissolving 1000 μg in 100 μl of ethanol and 900 μl of sterile water. The stock solutions were sequentially diluted with double volumes of solvent (10% aqueous ethanol solution) to yield 500/250/125/62.5/31.25/15.625/7.81 μg/ml test solutions.
Chromobacterium violaceum CV026 was used to determine the anti-quorum sensing activity. Inducer N-hexanoyl homoserine lactone (C6-HSL) was purchased from Sigma-Aldrich. CV026 was cultivated in Luria-Bertani (LB) medium (LB, 5 g yeast extract, 10 g tryptone, 5 g NaCl, 1 L water) at 30° C. overnight under aerobic conditions. A standard disc-diffusion assay was used to detect anti-quorum sensing activity of V and capsaicin by making use of double layer culture plates. 15 ml LB medium (2.5% agar) was overlaid with 15 ml LB (1.0% agar) containing 50 μl C. violaceum CV026 with 20 μg/ml-1 kanamycin and 50 ng/ml C6-AHL. Test concentrations of V and capsaicin were added onto sterile disks (8 mm diameter) and placed on the agar. The plates were then incubated overnight at 30° C. and quorum sensing inhibition was detected as a less colored/colourless zone around the disk, where viable cells, indicative of growth but quorum sensing inhibition, were present. Measurements were made from the outer edge of the discs to the edge of the zones of anti-quorum sensing inhibition. The formulation solvent (10% aqueous ethanol) was used as the negative control.
The biosensor strain, C. violaceum CV026, is a mutant of the wild type strain and is unable to produce its own AHL signal. It only responds to exogenous active signal molecules and produces a purple color, violacein. Loss of this purple color around the disk when incubated with exogenous AHL is thus indicative of QS inhibition by the test compounds. More specifically, the zone (mm past the disk) of QS inhibition results in an opaque disc with no purple color but bacterial growth. […] The results are shown below in Table 1, wherein QS denotes quorum sensing.

[4] = CV026, read-out: Antibacterial (zone of growth inhibition)
[5] = CV026, read-out: QS (zone of quorum sensing inhibition)

| SMILES | Biofilm (OD 595 nm) ([1]; 7.81 μg/mL) | Biofilm (OD 595 nm) ([1]; 31.125 μg/mL) | Biofilm (OD 595 nm) ([1]; 125 μg/mL) | inhibition of biofilm formation, conclusion in words [1] | biofilm formed (CVSA), in words [1] | Biofilm (OD 595 nm) (Escherichia coli O157:H7; 8 μg/mL) | Biofilm (OD 595 nm) (Escherichia coli O157:H7; 32 μg/mL) | Biofilm (OD 595 nm) ([2]; 7.81 μg/mL) | Biofilm (OD 595 nm) ([2]; 31.125 μg/mL) | biofilm formed (CVSA), in words [2] | QS (zone of quorum sensing inhibition) ([3]; 125 μg/mL) | QS (zone of quorum sensing inhibition) ([3]; 250 μg/mL) | QS (zone of quorum sensing inhibition) ([3]; 500 μg/mL) | zone of inhibition at 7.81 µg/mL [3, 4] [mm] | zone of inhibition at 15.63 µg/mL [3, 4] [mm] | zone of inhibition at 31.13 µg/mL [3, 4] [mm] | zone of inhibition at 62.5 µg/mL [3, 4] [mm] | zone of inhibition at 125 µg/mL [3, 4] [mm] | zone of inhibition at 250 µg/mL [3, 4] [mm] | zone of inhibition at 500 µg/mL [3, 4] [mm] | further results |
| --- | --- | --- | --- | --- | --- | --- | --- | --- | --- | --- | --- | --- | --- | --- | --- | --- | --- | --- | --- | --- | --- |
| COc1cc(CNC(=O)CCCC/C=C/C(C)C)ccc1O [Capsaicin, (E)-N-(4-hydroxy-3-methoxybenzyl)-8-methylnon-6-enamide, reference compound] | 7.1^a OD 595 nm | 7.0^a OD 595 nm | 7.2^a OD 595 nm | did not exhibit any biofilm formation inhibition | did not show any reduction of biofilm formation | 5.9^a OD 595 nm | 5.8^a OD 595 nm | 8.5^a OD 595 nm | 8.1^a OD 595 nm | did not show any reduction of biofilm formation | NO | NO | NO | 0 | 0 | 0 | 8 | 9 | 14 | 11 | Biofilm (OD 595 nm) (Escherichia coli O157:H7; 125 μg/mL): 5.1^a OD 595 nm; biofilm formation inhibition, in words (Escherichia coli O157:H7; 125, 32 and 8 μg/ml, any dose tested): did not show any reduction of biofilm formation; also recorded: did not exhibit any biofilm formation inhibition; biofilm formation inhibition, conclusion in words ([2]; any dose tested): did not exhibit any biofilm formation inhibition; QS (zone of quorum sensing inhibition) ([3]; 62.5 μg/mL): NO; zone of inhibition at 7.81 µg/mL [3, 5]: 0 mm; zone of inhibition at 15.63 µg/mL [3, 5]: 0 mm; zone of inhibition at 31.13 µg/mL [3, 5]: 0 mm; quorum sensing inhibiting activity (in words) ([3]; non antibacterial doses (31.25/15.625/7.81 μg/ml)): did not exhibit quorum sensing inhibiting activity |
| COc1cc(CNC(=O)CCCCC#Cc2ccccc2)ccc1O [Phenylcapsaicin, N-[(4-hydroxy-3-methoxyphenyl)methyl]-7-phenylhept-6-ynamide] | 1.7^b OD 595 nm | 1.3^b OD 595 nm | 1.9^b OD 595 nm | potent inhibitor of biofilm formation | significantly reduced | 4.9^b OD 595 nm | 2.4^b OD 595 nm | 2.9^b OD 595 nm | 3.2^b OD 595 nm | significantly reduced; also recorded: good inhibitor of biofilm formation | NO | NO | NO | 0 | 0 | 0 | 3 | 5 | 9 | 10 | biofilm formed (CVSA), in words (Escherichia coli O157:H7; 8 μg/ml lowest dose tested): no effect; biofilm formed (CVSA), in words (Escherichia coli O157:H7; 125 and 32 μg/ml): significantly reduced; also recorded: good inhibitor of biofilm formation; quorum sensing inhibiting activity (in words) ([3]; 61.5/31.25/15.625/7.81 μg/ml doses): strong to weak; zone of inhibition at 7.81 µg/mL [3, 5]: 3 mm; zone of inhibition at 15.63 µg/mL [3, 5]: 9 mm; zone of inhibition at 31.13 µg/mL [3, 5]: 11 mm; zone of inhibition at 62.5 µg/mL [3, 5]: 7 mm; antibacterial activity (in words) ([3]; higher doses (500/250/125 μg/ml)): antibacterial activity |
